Patent US20220132847A1, “CINNOLINIUM COMPOUNDS FOR USE IN A METHOD OF CONTROLLING UNWANTED PLANT GROWTH” (SYNGENTA CROP PROTECTION AG, priority 2019, published 2022)

How the values were obtained:
Assay in all cases: Post-emergence efficacy, glasshouse
Format in all cases: in vivo
[1] = system: Euphorbia heterophylla (EPHHL); settings: evaluated after 13 days, 100=total damage to plant, 0=no damage to plant; for pest or weed control at 500 g/ha / pest or weed control at 1000 g/ha: Euphorbia heterophylla, post-emergence, 312 h, read-out: Control of weed species after post-emergence application, EPHHL; for pest or weed control at 500 g/ha: Application Rate 500 g/Ha; for Control of weed species after post-emergence application, EPHHL / pest or weed control at 1000 g/ha: Application Rate 1000 g/Ha
Experimental: (§1) Seeds of a variety of test species were sown in standard soil in pots. After cultivation for 14 days (post-emergence) under controlled conditions in a glasshouse (at 24/16° C., day/night; 14 hours light; 65% humidity), the plants were sprayed with an aqueous spray solution derived from the dissolution of the technical active ingredient formula (I) in a small amount of acetone and a special solvent and emulsifier mixture referred to as IF50 (11.12% Emulsogen EL360™+44.44% N-methylpyrrolidone+44.44% Dowanol DPM glycol ether), to create a 50 g/l solution which was then diluted to required concentration using 0.25% or 1% Empicol ESC70 (Sodium lauryl ether sulphate)+1% ammonium sulphate in water as diluent.
(§2) The test plants were then grown in a glasshouse under controlled conditions (at 24/16° C., day/night; 14 hours light; 65% humidity) and watered twice daily. After 13 days the test was evaluated (100=total damage to plant; 0=no damage to plant).
(§3) Ipomoea hederacea (IPOHE), Euphorbia heterophylla (EPHHL), Chenopodium album (CHEAL), Amaranthus palmeri (AMAPA), Lolium perenne (LOLPE), Digitaria sanguinalis (DIGSA), Eleusine indica (ELEIN), Echinochloa crus-galli (ECHCG), Setaria faberi (SETFA)

[2] = system: Chenopodium album (CHEAL); settings: evaluated after 13 days, 100=total damage to plant, 0=no damage to plant; for pest or weed control at 500 g/ha / pest or weed control at 1000 g/ha: Chenopodium album, post-emergence, 312 h, read-out: Control of weed species after post-emergence application, CHEAL; for pest or weed control at 500 g/ha: Application Rate 500 g/Ha; for Control of weed species after post-emergence application, CHEAL / pest or weed control at 1000 g/ha: Application Rate 1000 g/Ha
Experimental: as §1, §2, §3

Eleusine indica (ELEIN) = settings: evaluated after 13 days, 100=total damage to plant, 0=no damage to plant; for pest or weed control at 500 g/ha / pest or weed control at 1000 g/ha: Eleusine indica, post-emergence, 312 h, read-out: Control of weed species after post-emergence application, ELEIN; for pest or weed control at 500 g/ha: Application Rate 500 g/Ha; for Control of weed species after post-emergence application, ELEIN / pest or weed control at 1000 g/ha: Application Rate 1000 g/Ha
Experimental: as §1, §2, §3

Lolium perenne (LOLPE) = settings: evaluated after 13 days, 100=total damage to plant, 0=no damage to plant; for pest or weed control at 500 g/ha / pest or weed control at 1000 g/ha: Lolium perenne, post-emergence, 312 h, read-out: Control of weed species after post-emergence application, LOLPE; for pest or weed control at 500 g/ha: Application Rate 500 g/Ha; for Control of weed species after post-emergence application, LOLPE / pest or weed control at 1000 g/ha: Application Rate 1000 g/Ha
Experimental: as §1, §2, §3

Setaria faberi (SETFA) = settings: evaluated after 13 days, 100=total damage to plant, 0=no damage to plant; for pest or weed control at 500 g/ha / pest or weed control at 1000 g/ha: Setaria faberi, post-emergence, 312 h, read-out: Control of weed species after post-emergence application, SETFA; for pest or weed control at 500 g/ha: Application Rate 500 g/Ha; for Control of weed species after post-emergence application, SETFA / pest or weed control at 1000 g/ha: Application Rate 1000 g/Ha
Experimental: as §1, §2, §3

[3] = system: Amaranthus palmeri (AMAPA); settings: evaluated after 13 days, 100=total damage to plant, 0=no damage to plant; for pest or weed control at 500 g/ha / pest or weed control at 1000 g/ha: Amaranthus palmeri, post-emergence, 312 h, read-out: Control of weed species after post-emergence application, AMAPA; for pest or weed control at 500 g/ha: Application Rate 500 g/Ha; for Control of weed species after post-emergence application, AMAPA / pest or weed control at 1000 g/ha: Application Rate 1000 g/Ha
Experimental: as §1, §2, §3

[4] = system: Ipomoea hederacea (IPOHE); settings: evaluated after 13 days, 100=total damage to plant, 0=no damage to plant; for pest or weed control at 500 g/ha / pest or weed control at 1000 g/ha: Ipomoea hederacea, post-emergence, 312 h, read-out: Control of weed species after post-emergence application, IPOHE; for pest or weed control at 500 g/ha: Application Rate 500 g/Ha; for Control of weed species after post-emergence application, IPOHE / pest or weed control at 1000 g/ha: Application Rate 1000 g/Ha
Experimental: as §1, §2, §3

[5] = system: Echinochloa crus-galli (ECHCG); settings: evaluated after 13 days, 100=total damage to plant, 0=no damage to plant; for pest or weed control at 500 g/ha / pest or weed control at 1000 g/ha: Echinochloa crus-galli, post-emergence, 312 h, read-out: Control of weed species after post-emergence application, ECHCG; for pest or weed control at 500 g/ha: Application Rate 500 g/Ha; for Control of weed species after post-emergence application, ECHCG / pest or weed control at 1000 g/ha: Application Rate 1000 g/Ha
Experimental: as §1, §2, §3

[6] = system: Digitaria sanguinalis (DIGSA); settings: evaluated after 13 days, 100=total damage to plant, 0=no damage to plant; for pest or weed control at 500 g/ha / pest or weed control at 1000 g/ha: Digitaria sanguinalis, post-emergence, 312 h, read-out: Control of weed species after post-emergence application, DIGSA; for pest or weed control at 500 g/ha: Application Rate 500 g/Ha; for Control of weed species after post-emergence application, DIGSA / pest or weed control at 1000 g/ha: Application Rate 1000 g/Ha
Experimental: as §1, §2, §3

| Compound | pest or weed control at 500 g/ha [1] | pest or weed control at 500 g/ha [2] | pest or weed control at 500 g/ha (Eleusine indica (ELEIN)) | pest or weed control at 500 g/ha (Lolium perenne (LOLPE)) | pest or weed control at 500 g/ha (Setaria faberi (SETFA)) | pest or weed control at 500 g/ha [3] | pest or weed control at 500 g/ha [4] | pest or weed control at 500 g/ha [5] | pest or weed control at 500 g/ha [6] | pest or weed control at 1000 g/ha [1] | pest or weed control at 1000 g/ha [2] | pest or weed control at 1000 g/ha (Eleusine indica (ELEIN)) | pest or weed control at 1000 g/ha (Lolium perenne (LOLPE)) | pest or weed control at 1000 g/ha (Setaria faberi (SETFA)) | pest or weed control at 1000 g/ha [3] | pest or weed control at 1000 g/ha [4] | pest or weed control at 1000 g/ha [5] | pest or weed control at 1000 g/ha [6] | further results |
| --- | --- | --- | --- | --- | --- | --- | --- | --- | --- | --- | --- | --- | --- | --- | --- | --- | --- | --- | --- |
| CCOP(=O)(O)CCc1c[n+](C)nc2ccccc12 [Compound A54, ethoxy-[2-(2-methylcinnolin-2-ium-4-yl)ethyl]phosphinic acid 2,2,2-trifluoroacetate] | 80% | 20% | 30% | 20% | 30% | 30% | 20% | 30% | 40% | – | – | – | – | – | – | – | – | – | – |
| COC(=O)CC[n+]1cc(C(=O)[N-]S(=O)(=O)C2CC2)c2ccccc2n1 [Compound A19, cyclopropylsulfonyl-[2-(3-methoxy-3-oxo-propyl)cinnolin-2-ium-4-carbonyl]azanide] | 40% | 60% | 50% | 20% | 0% | 30% | 30% | 60% | 40% | – | – | – | – | – | – | – | – | – | – |
| ethoxy-[(2-methylcinnolin-2-ium-4-yl)methyl]phosphinic acid [Compound A51] | – | – | – | – | – | – | – | – | – | – | – | – | – | – | – | – | – | – | Control of weed species after post-emergence application, EPHHL [1]: 90; Control of weed species after post-emergence application, CHEAL [2]: 60; Control of weed species after post-emergence application, ELEIN (Eleusine indica (ELEIN)): 80; Control of weed species after post-emergence application, LOLPE (Lolium perenne (LOLPE)): 20; Control of weed species after post-emergence application, SETFA (Setaria faberi (SETFA)): 90; Control of weed species after post-emergence application, AMAPA [3]: 90; Control of weed species after post-emergence application, IPOHE [4]: 60; Control of weed species after post-emergence application, ECHCG [5]: 70; Control of weed species after post-emergence application, DIGSA [6]: 90 |
| CONC(=O)c1c[n+](C)nc2ccccc12 [Compound A4, N-methoxy-2-methyl-cinnolin-2-ium-4-carboxamide 2,2,2-trifluoroacetate] | – | – | – | – | – | – | – | – | – | 50% | 40% | 20% | 0% | 10% | 10% | 20% | 10% | 0% | – |
| CCOC(=O)Cc1c[n+](C)nc2ccccc12 [Compound A52, ethyl 2-(2-methylcinnolin-2-ium-4-yl)acetate 2,2,2-trifluoroacetate] | 40% | 60% | 70% | 10% | 10% | 50% | 20% | 10% | 30% | – | – | – | – | – | – | – | – | – | – |
| CC(C)OP(=O)([O-])c1c[n+](C(C)C)nc2ccccc12 [Compound A76, isopropoxy-(2-isopropylcinnolin-2-ium-4-yl)phosphinate] | 100% | 90% | 100% | 50% | 80% | 100% | 90% | 70% | 80% | – | – | – | – | – | – | – | – | – | – |
| CCCP(=O)([O-])c1c[n+](C)nc2ccccc12 [Compound A49] | – | – | – | – | – | – | – | – | – | 100% | 90% | 100% | 30% | 90% | 100% | 90% | 70% | 100% | – |
| CS(=O)(=O)[N-]C(=O)c1c[n+](CCO)nc2ccccc12 [Compound A21] | – | – | – | – | – | – | – | – | – | 80% | 70% | 80% | 60% | 90% | 90% | 80% | 50% | 70% | – |
| CCOP(=O)(Cc1c[n+](C)nc2ccccc12)OCC.[I-] [Compound A47, 4-(diethoxyphosphorylmethyl)-2-methyl-cinnolin-2-ium iodide] | – | – | – | – | – | – | – | – | – | – | – | – | – | – | – | – | – | – | Control of weed species after post-emergence application, EPHHL [1]: 30; Control of weed species after post-emergence application, CHEAL [2]: 70; Control of weed species after post-emergence application, ELEIN (Eleusine indica (ELEIN)): 50; Control of weed species after post-emergence application, LOLPE (Lolium perenne (LOLPE)): 10; Control of weed species after post-emergence application, SETFA (Setaria faberi (SETFA)): 40; Control of weed species after post-emergence application, AMAPA [3]: 60; Control of weed species after post-emergence application, IPOHE [4]: 20; Control of weed species after post-emergence application, ECHCG [5]: 30; Control of weed species after post-emergence application, DIGSA [6]: 40 |
| COCC[n+]1cc(C(=O)[N-]S(C)(=O)=O)c2ccccc2n1 [Compound A24] | – | – | – | – | – | – | – | – | – | 40% | 70% | 50% | 20% | 50% | 70% | 60% | 50% | 40% | – |
| O=P(O)(O)CCCc1c[n+](CCCP(=O)(O)O)nc2ccccc12 [Compound A82, 3-[2-(3-phosphonopropyl)cinnolin-2-ium-4-yl]propylphosphonic acid chloride] | – | – | – | – | – | – | – | – | – | 20% | 0% | 10% | 10% | 0% | 30% | 10% | 20% | 10% | – |
| C[n+]1cc(CCC(=O)O)c2ccccc2n1 [Compound A55, 3-(2-methylcinnolin-2-ium-4-yl)propanoic acid chloride] | – | – | – | – | – | – | – | – | – | 70% | 100% | 100% | 20% | 30% | 90% | 70% | 90% | 100% | – |
